# Measurements published in PMC2839369 (Chimia, 2009).
# Biological target: thymidine kinase from Thermotoga maritima (TmTK) (Thermotoga maritima, UniProt Q9WYN2)
# Assay: crystal structures and activity
# Format: binding
# Conditions: phosphoryl donor site
# Sequence of thymidine kinase from Thermotoga maritima (TmTK) (Q9WYN2 whole entry): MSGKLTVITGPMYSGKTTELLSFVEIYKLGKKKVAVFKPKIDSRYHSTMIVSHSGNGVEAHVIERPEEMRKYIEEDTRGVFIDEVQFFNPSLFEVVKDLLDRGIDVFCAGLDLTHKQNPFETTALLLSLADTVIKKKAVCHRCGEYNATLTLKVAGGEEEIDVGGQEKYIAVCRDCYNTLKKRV
smiles,measurement,value
Nc1ncnc2c1ncn2[C@@H]1O[C@H](COP(=O)(O)OP(=O)(O)OP(=O)(O)O)[C@@H](O)[C@H]1O [ATP],crystal structures and activity (summary of authors' earlier work),large conformational change in the native homotetramer associated with ATP binding
